One test has as its target T1, hP2X3R (Homo sapiens, UniProt P56373, S15V).
T1 construct: expressed in transfected cells; host or cells: 1321N1 astrocytoma cells, retroviral expression system
T1 sequence (P56373 1-397 S15V): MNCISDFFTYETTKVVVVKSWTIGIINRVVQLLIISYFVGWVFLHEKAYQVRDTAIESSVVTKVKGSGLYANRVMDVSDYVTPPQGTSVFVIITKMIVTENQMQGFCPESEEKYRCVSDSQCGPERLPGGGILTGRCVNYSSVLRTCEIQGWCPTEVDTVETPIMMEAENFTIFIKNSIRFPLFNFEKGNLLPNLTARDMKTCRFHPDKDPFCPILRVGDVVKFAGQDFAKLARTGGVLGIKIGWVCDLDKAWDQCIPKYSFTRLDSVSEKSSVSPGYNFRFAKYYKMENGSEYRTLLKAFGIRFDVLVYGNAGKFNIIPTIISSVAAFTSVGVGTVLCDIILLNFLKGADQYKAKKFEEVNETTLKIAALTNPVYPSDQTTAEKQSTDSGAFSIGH
The test can be described thus: Calcium influx assay, 1321N1 astrocytoma cells, ATP EC80. It is filed as cell-based. An excerpt: For 1321N1 astrocytoma cells stably expressing the human, rat, or mouse P2X7Rs, or hP2X2Rs or hP2X4Rs, the fluorescent Ca^2+-chelating dye Fluo-4 acetoxymethyl ester (Fluo-4 AM, Thermo Fisher Scientific, Dreieich, Germany) was used. For 1321N1 astrocytoma cell lines recombinantly expressing the hP2X1Rs or hP2X3Rs, the FLIPR® Calcium 5 Assay Kit (Molecular Devices, San José, CA, USA) was employed. Human, rat, and mouse P2X7Rs as well as hP2X1Rs, hP2X2Rs, hP2X3Rs, and hP2X4Rs were recombinantly expressed in 1321N1 astrocytoma cells using a retroviral expression system[72]–[74].
On the first day, 45,000 cells per well (30,000 cells for the human P2X3 receptor-expressing cells) were seeded into a 96-well polystyrene microplate with a black, flat bottom in a final volume of 200 µL. After overnight incubation at 37 °C and 10% CO2 (5% CO2 for the human P2X3R-expressing cell line), the medium was removed by inverting the plate, and the cells were loaded with dye solution. Hanks’ balanced salt solution (HBSS, Thermo Fisher Scientific, Dreieich, Germany) was used as the assay buffer for human P2X1R, P2X2R, P2X3R, and P2X4R. For the P2X7Rs, a different assay buffer was used: 150 mM sodium-glutamate, 5 mM KCl, 0.5 mM CaCl2, 0.1 mM MgCl2, 10 mM D-glucose, 25 mM 4-(2-hydroxyethyl)-1-piperazineethanesulfonic acid (HEPES), pH 7.4. The dye solutions were freshly prepared. The Fluo-4 AM solution contained 3 µM of Fluo-4 AM in assay buffer and 1% of the non-ionic detergent Pluronic F-127® (Sigma-Aldrich, Taufkirchen, Germany). The Calcium 5 dye, used for hP2X1Rs and hP2X3Rs, was prepared in HBSS buffer. Cells were loaded with Fluo-4 AM and incubated for 1 h at room temperature with gentle shaking (100 rpm), while those loaded with the Calcium 5 dye were incubated for 1 h at 37 °C. After incubation, the dye solution was carefully removed from the plate, and buffer was added to the cells for the evaluation of agonists. […] The agonist solution was prepared in a 96-well transparent plate, obtaining the respective EC80 values. As a control, assay buffer without the test compound was used. After 30 min of incubation with antagonist, the plates were measured using a fluorescence imaging plate reader NOVOstar (BMG Labtech GmbH, Offenburg, Germany) at an excitation wavelength of 485 nm and an emission wavelength of 520 nm, for 30 s at 0.4 s intervals. Calcium influx measurements were then initiated by automatic addition of 20 µL of agonist solution by the plate reader’s pipetting device. Data were analyzed using Microsoft Excel and GraphPad Prism (Version 8.0, San Diego, CA, USA). EC80 and IC50 values were calculated using nonlinear regression with a sigmoidal dose-response equation.

The test system of the next test is T2, hP2X4R.
T2 construct: expressed in transfected cells; host or cells: Xenopus laevis oocytes (cRNA, pNKS2 vector)
The test can be described thus: TEVC current traces with co-applied antagonist in Xenopus oocytes. The test is classed as cell-based, human. As to conditions: 300 µM ATP, 100 nM antagonist.

Molecules are shown by their SMILES. Several values for one entry are separate records, joined by “and”; a condition that tells them apart may be missing. Equal entries are not always repeated. Entries after “also recorded” stand apart in the source; their conditions may differ.

As usually defined, the inhibition is the relative decrease from the control value, in per cent. In general, IC50 refers to the point on the concentration scale where inhibition reaches its midpoint.

For `O=C(NNc1ccccc1Cl)C12CC3CC(CC(C3)C1)C2` [UB-ALT-P30, reference compound], on hP2X3R (1321-N1, read-out: % inhibition ± SD at 10 μM, hP2X3R, 10 μM antagonist, ATP 100 nM), the inhibition at 10 µM is 86 ± 9%. Moreover, the “hP2X3R inhibition at 10 μM” value at hP2X3R (Log(c) M -5, single values, 10 µM, in % (unit assumed)) is 94.9053 and 93.1871 and 60.8032 and 85.3564 and 91.979 and 90.698 and 90.7697 and 79.3438. Further, at hP2X3R (Log(c) M -6, in %), the “hP2X3R inhibition, IC50 curve” value was 58.8384 and 67.0023 and 59.1901 and 77.3652. The “fold more potent at the hP2X7R versus the hP2X3R” value on hP2X3R (calcium influx IC50 ratio) was 40 fold. Moreover, the IC50 at hP2X3R (calcium influx, estimated) is 707 ± 185 nM.
For `CC12CC3CC1(C)C1(C)CC3(C(=O)NNc3ccccc3Cl)CC21C` [UB-MBX-46], the “antagonism of the hP2X4R” value with hP2X4R is recorded as “virtually no antagonism; also recorded: negligible”.

(Values after paper PMC12436592 (Nature Communications, 2025).)
